Assay: Displacement of [3H]clonidine from imidazoline receptor I-1 of bovine chromaffin cell membranes

SMILES | Ki
CC1CCC(NC(C2CC2)C2CC2)=N1 (stereo unspecified) | 1580 nM
CCC1CCC(NC(C2CC2)C2CC2)=N1 (stereo unspecified) | 170 nM
C1CN=C(NC(C2CC2)C2CC2)C1 | 513 nM
C1COC(NC(C2CC2)C2CC2)=N1 [CHEBI:8862] | 74 nM
CC1CC(NC(C2CC2)C2CC2)=NC1C (stereo unspecified) | 537 nM
CC1CN=C(NC(C2CC2)C2CC2)C1 (stereo unspecified) | 646 nM

From BindingDB's records for doi:10.1021/jm001111b (Louis Pasteur University, 2001)
